According to patent publication US20180346731A1, “Formation of Stable Pyranoanthocyanins, and Uses Thereof as Sources of Natural Color” (Ohio State Innovation Foundation, priority 2017, published 2018):

Columns and labels:
[1] = Anthocyanin survival of control treatments at pH 2.5 (uHPLC AUC 500-520 nm); type: physicochemical; conditions: pH 2.5 acidified water, no pyruvic acid, 25° C., day 31
Description: FIG. 10: Pyranoanthocyanin yield for anthocyanins (500 μM) subjected to pyruvic acid treatment (×100 M ratio) and anthocyanin survival of control treatments at pH 2.5 acidified water at day 7, 14, and 31. Yield defined as (AUC500-520 nm of PACN at tn/AUC500-520 nm of ACN @t0)*100. Survival defined as (AUC500-520 nm of ACN at tn/AUC500-520 nm of ACN @ t0)*100. Values shown are means (n=3) and bars represent standard deviation.
A uHPLC system (Shimadzu Nexera-i LC-2040C, Maryland, U.S.) coupled with tandem MS (Shimadzu LCMS-8040, Maryland, U.S.) was used in evaluating initial anthocyanin purity and monitoring changes in anthocyanins with and without pyruvic acid treatment over time. A 0.4 mL/min flow rate was used on a Pinnacle DB (Restek Corporation, Bellefonte, Pa.) C18 Column (1.9 μm particle size, 50×2.1 mm length). The column oven was set at 40° C. The following gradient of solvent A (4.5% formic acid) and B (100% acetonitrile) was used: 0% B for the first minute, ramped to 15% B by 10 min. This method was effective for separation of the formed pyranoanthocyanin from anthocyanin for all isolates except cy3rut which coeluted with the formed pyranoanthocyanin. This was observed through MS-MS data. […]
Quantification of pigments was conducted on day 0, 3, 7, 14, and 31 using a standard curve of cyanidin-3-glucoside (Sigma Aldrich, St. Louis, Mo., U.S.) run under the same conditions used for isolates. Molar absorptivities of anthocyanins and carboxypyranoanthocyanidins have been reported as being relatively similar and were thought to provide a basis of confidence in using AUC500-520 nm as a quantitative measure of pyranoanthocyanin yield.
Prior to dilution, the concentrations of the isolated pigment extracts were determined by the pH differential method for subsequent dilution to known concentrations. The isolates were then diluted to 500 μM (expressed as Cyanidin-3-glucoside equivalents) in pH 2.5 deionized water (previously adjusted with HCl) which contained 0.1% potassium sorbate (w/v) and 0.1% sodium benzoate (w/v) to function as preservative agents during storage. […]

[2] = Colorimetry (CIEL*c*h*, ΔE) of pigment solutions with ascorbic acid; type: physicochemical
Description: The semi-purified chokeberry extract, the isolated cyanidin-3-galactoside, and the purified 5-carboxypyranocyanidin-3-galactoside were diluted in pH 3.0 citrate buffer (0.1 M adjusted with HCl) until an absorbance of 1.0 at their respective λmax was reached. Levels of AA of 250, 500, and 1000 mg/L were added using a concentrated ascorbic acid stock solution, and a control consisting of each pigment with the absence of AA was maintained. The control consisted of the pigment in the buffer in the absence of AA. An additional test was performed with the same model juice using hydrogen peroxide, a known degradation product of AA. To determine if AA bleaching was due to formation of H2O2, direct addition of it was investigated. In place of added AA, a 62.2 μL of a 0.3% peroxide solution was added to match the molar equivalency of the 500 mg/L AA level, which was 2.84 mM.
All samples were brought to the same final volume with additional citrate buffer. […] Samples were stored in the dark at 25° C. in an incubator. UV-Vis spectrophotometry, colorimetry, and HPLC analyses were conducted over a 5 day period following the addition of ascorbic acid or hydrogen peroxide. UV-Vis spectral data was collected every hour for the first 8 hours, and then at 12 hr, and daily from that point on for 5 days. […] HPLC analyses were conducted on days 0, 1, 3, and 5. All treatments were run in triplicate.
Using UV-Vis spectral data (5 nm steps, 380-700 nm) in combination with software written for color conversion, absorbance data was translated to CIE-L*c*h*. The calculations for CIE-L*c*h* implemented by the software used CIE relative spectral power distribution for a D65 standard illuminants and 10° observer angle function. Color data is reported as L* (lightness), c* (chroma), and h* (hue angle).
Total color changes (ΔE) were calculated as the color change from day 0 to 5 for each respective treatment, and presented in Table 4.
Numbers are means of 3 replications, followed by (standard deviations). ΔE: total color change from day 0 (control) to day 5.

[3] = 1000 mg/L AA, listed as cyanidin-3-galactoside

With `OC[C@H]1O[C@@H](Oc2cc3c(O)cc(O)cc3[o+]c2-c2ccc(O)c(O)c2)[C@H](O)[C@@H](O)[C@H]1O` [Cyanidin-3-galactoside, cyanidin-3-galactoside] the “anthocyanin survival of control treatment” value [1] was 84%, the “Chroma Day 0” value ([2]; 250 mg/L AA) was 50.8 (0.2) and the “Chroma Day 5” value ([2]; 250 mg/L AA) was 13.9 (0.7). For the same molecule, the “Hue Angle Day 0” value ([2]; 250 mg/L AA) was 18.7 (0.1) °, the “Hue Angle Day 5” value ([2]; 250 mg/L AA) was 21.9 (1.2) ° and the “Lightness Day 0” value ([2]; 250 mg/L AA) was 77.5 ( ).2). For the same molecule, the “Lightness Day 5” value ([2]; 250 mg/L AA) was 93.2 (0.3), the “ΔE Over 5 days” value ([2]; 250 mg/L AA) was 19.3 (0.3) and the “Chroma Day 0” value ([2]; 500 mg/L AA) was 51.8 (0.0). The “Chroma Day 5” value ([2]; 500 mg/L AA) was 10.5 (0.4), the “Hue Angle Day 0” value ([2]; 500 mg/L AA) was 18.8 (0.0) ° and the “Hue Angle Day 5” value ([2]; 500 mg/L AA) was 51.1 (2.7) °. The “Lightness Day 0” value ([2]; 500 mg/L AA) was 77.0 (0.1), the “Lightness Day 5” value ([2]; 500 mg/L AA) was 94.4 (0.6) and the “ΔE Over 5 days” value ([2]; 500 mg/L AA) was 23.6 (0.2). The “Chroma Day 0” value ([2]; 1000 mg/L AA) was 50.9 (0.1), the “Chroma Day 5” value ([2]; 1000 mg/L AA) was 13.7 (1.8) and the “Hue Angle Day 0” value ([2]; 1000 mg/L AA) was 18.7 (0.1) °. The “Hue Angle Day 5” value ([2]; 1000 mg/L AA) was 77.5 (4.5) °, the “Lightness Day 0” value ([2]; 1000 mg/L AA) was 77.2 (0.3) and the “Lightness Day 5” value ([2]; 1000 mg/L AA) was 94.5 (0.7). For the same molecule, the “ΔE Over 5 days” value ([2]; 1000 mg/L AA) was 27.6 (0.7), the “L* after 48 hours” value ([2]; 1000 mg/L AA, 48 hours) was 96.4 and the “Hue Angle Day 0” value [2, 3] was 18.7 °. The “Hue Angle Day 5” value [2, 3] was 77.5 °, the “Lightness Day 0” value [2, 3] was 77.2 and the “ΔE Over 5 days” value [2, 3] was 27.6. The “Chroma Day 0” value ([2]; Control, no AA) was 51.2 (0.2), the “Chroma Day 5” value ([2]; Control, no AA) was 46.5 (2.1) and the “Hue Angle Day 0” value ([2]; Control, no AA) was 18.6 (0.1) °. The “Hue Angle Day 5” value ([2]; Control, no AA) was 15.9 (1.0) °, the Lightness Day 5 ([2]; Control, no AA) was 79.4 and the “ΔE Over 5 days” value ([2]; Control, no AA) was 2.6 (1.1). The “Lightness Day 0” value ([2]; Control, no AA, mean (SD), n=3) was 77.3 (0.1), the “time until significant change in chroma as compared to the control” value ([2]; all levels of AA) was 2 h and the initial hue angle ([2]; day 0) was 16.6 °.
